Consider 30 compounds from the RepoRT retention time repository (doi:10.1016/j.foodchem.2012.08.062).

Molecules are shown by their SMILES.

This series can be described thus: RP, Waters ACQUITY UPLC BEH Shield RP18, 150 × 3 mm, 1.7 µm, 40 °C, 0.5 mL/min, estimated dead time 1.4 min; A: water + 0.1% formic acid; B: acetonitrile + 0.1% formic acid; gradient (min/%B) 0/0 9.91/26 18.51/65 18.76/100 20.76/100. The following applies: stereoisomer not certain.
For the compound `O=C(C=Cc1ccc(O)c(O)c1)OC1CC(O)(C(=O)O)CC(O)C1O` (stereo not given), the LC retention time was 8.3 min.
In the case of `COc1cc(C=CC(=O)O)cc(OC)c1O`, the LC retention time is 12.7 min.
Consider `O=C(CCc1ccc(O)cc1)c1c(O)cc(O)cc1OC1OC(CO)C(O)C(O)C1O` (stereo not given), for which the LC retention time is 13.7 min.
For `O=C1CC(c2ccc(O)cc2)Oc2cc(O)cc(O)c21` (stereo not given) the value was 17.1 min; for `CCCOC(=O)c1cc(O)c(O)c(O)c1`, 13.8 min.
On to `O=c1c(OC2OC(CO)C(O)C(O)C2O)c(-c2ccc(O)cc2)oc2cc(O)cc(O)c12` (stereo not given), for which the LC retention time was 13.8 min.
As to `O=c1c(O)c(-c2ccc(O)cc2)oc2cc(O)cc(O)c12`, the LC retention time was 18.4 min.
Next, `CC1OC(Oc2c(-c3ccc(O)c(O)c3)oc3cc(O)cc(O)c3c2=O)C(O)C(O)C1O` (stereo not given): 14 min; `O=c1cc(-c2ccc(O)cc2)oc2cc(O)cc(O)c12`: 18 min; `Oc1cc(O)c2c(c1)OC(c1ccc(O)c(O)c1)C(O)C2c1c(O)cc(O)c2c1OC(c1ccc(O)c(O)c1)C(O)C2` (stereo not given): 10.2 min.
Next, `O=C(CCc1ccc(O)cc1)c1c(O)cc(O)cc1O`: 17 min; `O=C(O)C=Cc1ccc(O)cc1`: 12.7 min.
As for `O=c1cc(-c2ccc(O)c(O)c2)oc2cc(OC3OC(CO)C(O)C(O)C3O)cc(O)c12` (stereo not given), the LC retention time is 12.7 min.
For `CC1OC(OCC2OC(Oc3c(-c4ccc(O)c(O)c4)oc4cc(O)cc(O)c4c3=O)C(O)C(O)C2O)C(O)C(O)C1O` (stereo not given) the value was 12.6 min; for `O=C(O)c1ccc(O)c(O)c1`, 7.05 min; for `O=C1c2c(O)cc(O)cc2OC(c2ccc(O)cc2)C1O` (stereo not given), 14.8 min.
For `O=c1c(OC2OC(CO)C(O)C2O)c(-c2ccc(O)c(O)c2)oc2cc(O)cc(O)c12` (stereo not given) the value was 13.7 min; for `O=c1c(O)c(-c2ccc(O)c(O)c2)oc2cc(O)cc(O)c12`, 16.7 min; for `O=C(O)CCc1ccc(O)c(O)c1`, 8.65 min.
Next, `O=C1c2c(O)cc(O)cc2OC(c2ccc(O)c(O)c2)C1O` (stereo not given): 13.3 min.
In the case of `O=c1cc(-c2ccc(O)cc2)oc2cc(OC3OC(CO)C(O)C(O)C3O)cc(O)c12` (stereo not given), the LC retention time was 13.7 min.
Next, `COc1cc(-c2oc3cc(O)cc(O)c3c(=O)c2O)ccc1O`: 18.1 min.
For `O=c1cc(-c2ccc(O)c(O)c2)oc2cc(O)cc(O)c12` the value was 16.6 min; for `CC1OC(OC2C(Oc3cc(O)c4c(c3)OC(c3ccc(O)cc3)CC4=O)OC(CO)C(O)C2O)C(O)C(O)C1O` (stereo not given), 13 min.
For `O=C(O)c1cc(O)c(O)c(O)c1` the value was 4.79 min; for `O=C(O)Cc1ccc(O)cc1`, 8.61 min.
`O=c1c(O)c(-c2ccccc2)oc2cc(O)cc(O)c12`: the LC retention time was 20.3 min.
Next, `O=C(O)c1ccccc1O`: 14.5 min; `COc1cc(CCC(=O)O)ccc1O`: 11.3 min; `COc1cc(C=CC(=O)O)ccc1O`: 12.8 min.
